{"source": "patent US12201725B2", "about": "“Dry powder compositions of treprostinil prodrugs and methods of use thereof” (Insmed Incorporated, priority 2019, dated 2025)", "origin": "cited, not measured here", "key": {"[1]": {"system": "hypoxia-induced increase in right ventricular pulse pressure (RVPP)", "conditions": "inhaled, comparison, not tested in Example 5"}, "[2]": {"conditions": "guinea pigs, comparison, not tested in Example 6"}}, "note": "Like-named read-outs stand apart in the source and are kept apart here.", "data": [{"smiles": "CCCCC[C@H](O)CC[C@@H]1[C@H]2Cc3cccc(OCC(=O)O)c3C[C@H]2C[C@H]1O", "note": "[treprostinil]", "values": [{"measurement": "Duration of inhibition of the hypoxia-induced increase in RVPP", "setting": "[1]; highest dose 215 μg/kg", "value": 2, "unit": "h"}, {"measurement": "Duration of inhibition of the hypoxia-induced increase in RVPP", "setting": "[1]; lower doses 15, 53, or 110 μg/kg", "value": 1, "unit": "h"}, {"measurement": "Timing of cough", "setting": "[2]; nebulized", "value": "≤ 10", "unit": "min"}, {"measurement": "Threshold dose of inhaled TRE that causes cough", "setting": "[2]", "value": 1.23, "unit": "µg/kg"}]}]}
